Laboratory results as given in patent publication US9028858B2 (Coloplast A/S, priority 2003, dated 2015).
Like-named read-outs stand apart in the source and are kept apart here.

Legend:
[1] = Appearance index of catheter and swelling medium after sterilization; format: physicochemical; conditions: 0=totally unacceptable, 5=perfect
Description: The appearance index was a weighted average of the subjective acceptability after sterilization of catheters packed in one single compartment with catheter and swelling medium (on a scale from 0 to 5: 0=totally unacceptable, e.g. by strong color or major precipitation; 5=perfect, e.g. no coloration, no precipitate) of the hydrophilic catheter (weighted 60%) and the swelling medium (weighted 40%).

[2] = test system: seven bacteria; test: Antibacterial effect / antibacterial index of silver compounds; format: cell-based; conditions: for Antibacterial index: index between 0 and 5.05; for antibacterial effect: pH 5.5, 7 and 8.5, 160 mM NaCl, 6% PEG 2000, excess undissolved salt (precipitate) present
Procedure: The solutions further contained 160 mM NaCl and 6% PEG 2000, and all solutions were sterilized with 50 kGy β- or γ-irradiation. β-Irradiation generally gave a better antibacterial effect and a smaller degree of coloration of the products than γ-irradiation, so β-irradiation was the preferred sterilization method. The silver compounds only worked when excess undissolved salt was allowed in the packaging, that is, they had no antibacterial effect when they were decanted from their precipitate.
The antibacterial effect of each compound was scored on a scale from 0 (no effect) to 3 (excellent effect) for each of the seven bacteria. The antibacterial index was defined as 5/12 multiplied by the sum of the square roots of the scores of each of the seven bacteria. Thus, the antibacterial index was a rational number between 0 and 5.05.

[3] = format: physicochemical
Procedure: When the results were analyzed and further tests were carried out to confirm the results, it appeared that the effects might be third-order interactions or higher. That is, the effects came from mixtures of 3, 5, 7 or any other odd number of compounds but apparently not from main effects or 2-factor interactions. Thus, a large synergistic action between the compounds appeared to be present.

[4] = for Degradation rate of 1% H2O2: Rate constant (k) (%/day) / Degradation rate of 1% H2O2: log k (%/day): 500 µg/mL DETAPMP, 10 mM citrate, 0.7% NaCl, pH 4
Description: The pH-value of the solution was adjusted to pH 4 with 4 M NaOH and 1 M HCl.
Seven swelling media were produced.
The irradiation dose was 2*26 kGy.
The stick-pack with “peel” was a laminated material consisting of PETP (12 μm), aluminium (9 μm) and polyethylene peel (polyethylene+10% polybutylene) (70 μm). The stick-packs were made out of a stamped area of 13×35 mm that was welded in the longitudinal direction by 1×3 units on a welder. It was welded by 2×2.2 units across in one end of the stick-pack, and in the other end by 4.0 bar, 130° C. and 3.5 s (breakable seal).

[5] = Various stabilizers: degradation of H2O2 at pH 4, 5.5 and 7; conditions: with stabilizer, 25 mM citric acid, approx. 1% H2O2
Procedure: Therefore the investigation of the influence of the pH-value on the stability in our system was included in the study.
24 different kinds of swelling media containing different stabilizers (one without stabilizer) and 3 different pH-values (pH 4, 5.5 and 7) were prepared. […] The concentration of sodium chloride in each of these three swelling media was 0.7% (w/w). Sodium chloride was tested because it could be used as an osmolality increasing agent. […] Two different kinds of material for the stick-pack were used, one with “peel” and one with “non-peel”. […] The irradiation dose was 2*26 kGy.
The stick-pack with “peel” was a laminated material consisting of PETP (12 μm), aluminium (9 μm) and polyethylene peel (polyethylene+10% polybutylene) (70 μm). […] The stick-packs were made out of a stamped area of 13×35 mm that was welded in the longitudinal direction by 1×3 units on a welder. It was welded by 2×2.2 units across in one end of the stick-pack, and in the other end by 4.0 bar, 130° C. and 3.5 s (breakable seal).
The stick-packs were stored for stability testing at 23° C. and 40° C. Samples were taken out after irradiation and after 2 and 4 weeks at 40° C. and 8 and 16 weeks at 23° C.

[6] = test system: Staphylococcus aureus; test: Coated catheter on inoculated agar plate, inhibition zone; format: cell-based; conditions: 1-5 g/L in 50 mM citrate (pH 5.5), 160 mM NaCl and 6% PEG 2000
Procedure: (§1) A series of antibacterial agents (See Table 12.1) were swelled into a hydrophilic coating on urinary catheters. The catheters were stored about 0, 3, 6 and 12 weeks at 25° C., 40° C., and 60° C. Agar plates were inoculated with various bacterial strains clinically isolated from infected human urine, and added the coated catheter on top of the surface of the agar. The agar plates were incubated for 18 hours at 37° C., and visually tested for presence or absence of an inhibition zone.
(§2) Catheter sections with a hydrophilic coating were swelled with a solution of the anti-microbial agents and were placed on agar plates inoculated with bacteria (clinical isolates, − and + denotes […], respectively): Proteus mirabilis (−), Pseudomonas aeruginosa (−), E. coli (−), Providencia Stuartii (−), Staphylococcus aureus (+), Enterococcus faecalis (+) and Klebsielia (−).
(§3) A highly fractionated factorial design (2^15-10IV-design) was constructed by Design Expert software (version 6.0.6) and used to screen 32 of the 2^15=32768 possible combinations, where each compound was either absent or present in a relevant concentration. […] All samples were β-sterilized with a dose of 50 kGy. The constituents and concentrations of the 32 solutions are described in Table 12.1:
(§4) Many of the 32 mixtures had powerful action against several of the 7 bacteria (0=no effect; 3=excellent effect), see Table 12.2 (sorted by decreasing antibacterial effect).

[7] = test system: E. coli; test: as above; format: cell-based; conditions: 1-5 g/L in 50 mM citrate (pH 5.5), 160 mM NaCl and 6% PEG 2000
Procedure: as §1, §2, §3, §4

[8] = test system: Enterococcus faecalis; test: as above; format: cell-based; conditions: 1-5 g/L in 50 mM citrate (pH 5.5), 160 mM NaCl and 6% PEG 2000
Procedure: as §1, §2, §3, §4

[9] = test system: Klebsiella; test: as above; format: cell-based; conditions: 1-5 g/L in 50 mM citrate (pH 5.5), 160 mM NaCl and 6% PEG 2000
Procedure: as §1, §2, §3, §4

[10] = test system: Proteus mirabilis; test: as above; format: cell-based; conditions: 1-5 g/L in 50 mM citrate (pH 5.5), 160 mM NaCl and 6% PEG 2000
Procedure: as §1, §2, §3, §4

[11] = test system: Providencia Stuartii; test: as above; format: cell-based; conditions: 1-5 g/L in 50 mM citrate (pH 5.5), 160 mM NaCl and 6% PEG 2000
Procedure: as §1, §2, §3, §4

[12] = test system: Pseudomonas aeruginosa; test: as above; format: cell-based; conditions: 1-5 g/L in 50 mM citrate (pH 5.5), 160 mM NaCl and 6% PEG 2000
Procedure: as §1, §2, §3, §4

CC1(C)NC(=O)[N-]C1=O.[Ag+] [5,5-DMH, silver 5,5-dimethylhydantoinate]
Appearance index ([1]; pH 5.5, 0.01% H2O2 added): 5 | Appearance index ([1]; pH 5.5, no H2O2 added): 2.8 | Appearance index ([1]; pH 7, no H2O2 added): 3.4 | Appearance index ([1]; pH 8.5, no H2O2 added): 2.2 | Antibacterial index ([2]; pH 5.5, 0.01% H2O2 added): 1.4 | antibacterial effect [2]: moderate to excellent | Antibacterial index ([2]; pH 5.5, no H2O2 added): 1.8 | Antibacterial index ([2]; pH 7, no H2O2 added): 3.4 | Antibacterial index ([2]; pH 8.5, no H2O2 added): 1.7

[H]/N=C(\N/C(=N/[H])NCCCCCCNC(=N)NC(=N)Nc1ccc(Cl)cc1)Nc1ccc(Cl)cc1 [Chlorhexidine, chlorhexidine digluconate]
solubility [3]: sparingly soluble

O=P(O)(O)CN(CCN(CP(=O)(O)O)CP(=O)(O)O)CCN(CP(=O)(O)O)CP(=O)(O)O [DETAPMP, Diethylenetriaminepenta(methylenephosphonic)acid]
Concentration of H2O2 (%) after storage at 40° C. ([4]; 50 mg/L DETAPMP, 0 days): 0.92% | Concentration of H2O2 (%) after storage at 40° C. ([4]; 50 mg/L DETAPMP, 14 days): 0.89% | Concentration of H2O2 (%) after storage at 40° C. ([4]; 50 mg/L DETAPMP, 25 days): 0.89% | Concentration of H2O2 (%) after storage at 40° C. ([4]; 100 mg/L DETAPMP, 0 days): 0.91% | Concentration of H2O2 (%) after storage at 40° C. ([4]; 100 mg/L DETAPMP, 14 days): 0.89% | Concentration of H2O2 (%) after storage at 40° C. ([4]; 100 mg/L DETAPMP, 25 days): 0.88% | Concentration of H2O2 (%) after storage at 40° C. ([4]; 150 mg/L DETAPMP, 0 days): 0.91% | Concentration of H2O2 (%) after storage at 40° C. ([4]; 150 mg/L DETAPMP, 14 days): 0.90% | Concentration of H2O2 (%) after storage at 40° C. ([4]; 150 mg/L DETAPMP, 25 days): 0.89% | Concentration of H2O2 (%) after storage at 40° C. ([4]; 200 mg/L DETAPMP, 0 days): 0.91% | Concentration of H2O2 (%) after storage at 40° C. ([4]; 200 mg/L DETAPMP, 14 days): 0.89% | Concentration of H2O2 (%) after storage at 40° C. ([4]; 200 mg/L DETAPMP, 25 days): 0.89% | Concentration of H2O2 (%) after storage at 40° C. ([4]; 250 mg/L DETAPMP, 0 days): 0.90% | Concentration of H2O2 (%) after storage at 40° C. ([4]; 250 mg/L DETAPMP, 14 days): 0.89% | Concentration of H2O2 (%) after storage at 40° C. ([4]; 250 mg/L DETAPMP, 25 days): 0.89% | Concentration of H2O2 (%) after storage at 40° C. ([4]; 350 mg/L DETAPMP, 0 days): 0.91% | Concentration of H2O2 (%) after storage at 40° C. ([4]; 350 mg/L DETAPMP, 14 days): 0.89% | Concentration of H2O2 (%) after storage at 40° C. ([4]; 350 mg/L DETAPMP, 25 days): 0.89% | Concentration of H2O2 (%) after storage at 40° C. ([4]; 500 mg/L DETAPMP, 0 days): 0.91% | Concentration of H2O2 (%) after storage at 40° C. ([4]; 500 mg/L DETAPMP, 14 days): 0.89% | Concentration of H2O2 (%) after storage at 40° C. ([4]; 500 mg/L DETAPMP, 25 days): 0.89% | Degradation rate of 1% H2O2: Rate constant (k) (%/day) ([4]; 40° C.): 0.0932 %/day | Degradation rate of 1% H2O2: log k (%/day) ([4]; 40° C.): −1.031 %/day | Degradation rate of 1% H2O2: Rate constant (k) (%/day) ([4]; 50° C.): 0.1722 %/day | Degradation rate of 1% H2O2: log k (%/day) ([4]; 50° C.): −0.764 %/day | Degradation rate of 1% H2O2: Rate constant (k) (%/day) ([4]; 60° C.): 0.3691 %/day | Degradation rate of 1% H2O2: log k (%/day) ([4]; 60° C.): −0.433 %/day | activation energy for the degradation of H2O2 ([4]; Arrhenius plot 40-60° C., DETAPMP at pH 4 and 10 mM citrate): 59.6 kJ/mol | Q10 of H2O2 degradation rate ([4]; DETAPMP at pH 4 and 10 mM citrate): ≈ 2

CC(O)(P(=O)(O)O)P(=O)(O)O [HEDP, 1-Hydroxyethane-1,1 diphosphonic acid]
calculated amount of degraded H2O2 after 2 years of storage at 23° C. ([5]; pH 4): 65.4% | calculated amount of degraded H2O2 after 2 years of storage at 23° C. ([5]; pH 5.5): 150.0% | calculated amount of degraded H2O2 after 2 years of storage at 23° C. ([5]; pH 7): 351.1%

O=C1CNC(=O)[N-]1.[Ag+] [Hydantoinate, silver hydantoinate]
Appearance index ([1]; pH 5.5, 0.01% H2O2 added): 3.6 | Appearance index ([1]; pH 5.5, no H2O2 added): 4 | Appearance index ([1]; pH 7, no H2O2 added): 3.4 | Appearance index ([1]; pH 8.5, no H2O2 added): 2.8 | Antibacterial index ([2]; pH 5.5, 0.01% H2O2 added): 2.3 | antibacterial effect [2]: moderate to excellent | Antibacterial index ([2]; pH 5.5, no H2O2 added): 2.7 | Antibacterial index ([2]; pH 7, no H2O2 added): 3.3 | Antibacterial index ([2]; pH 8.5, no H2O2 added): 3.2

[Cl][Ag] [silver chloride]
solubility [3]: sparingly soluble

benzalkonium chloride
antibacterial effect on S. aureus [6]: moderate to high | antibacterial effect on E. coli [7]: moderate to high | antibacterial effect on E. faecalis [8]: moderate to high | antibacterial effect on Klebsiella [9]: moderate to high | antibacterial effect on P. mirabilis [10]: not | antibacterial effect on P. stuartii [11]: moderate to high | antibacterial effect on P. aeruginosa [12]: moderate to high

polymeric silver imidazolate
Appearance index ([1]; pH 5.5, 0.01% H2O2 added): 3 | Appearance index ([1]; pH 5.5, no H2O2 added): 3.4 | Appearance index ([1]; pH 7, no H2O2 added): 4.2 | Appearance index ([1]; pH 8.5, no H2O2 added): 3.2 | Antibacterial index ([2]; pH 5.5, 0.01% H2O2 added): 2.7 | antibacterial effect [2]: moderate to excellent | Antibacterial index ([2]; pH 5.5, no H2O2 added): 0.8 | Antibacterial index ([2]; pH 7, no H2O2 added): 3.2 | Antibacterial index ([2]; pH 8.5, no H2O2 added): 2.8
